Results taken from ChEMBL document CHEMBL1201862, “PubChem BioAssay data set” (2004).
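Test compounds were applied to cells in 96-well plates for 48 hours at 5 doses. GI50: concentration for 50% inhibition of growth.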 Calls of active or inactive are those of the source. Cut-off read from the data, not from the text of the source: active = GI50 up to about 1.1 µM and inactive = higher.

Key:
Experiment in all cases: NCI tumour cell line growth inhibition, 48 h
[1] = system: UACC-257
[2] = system: RXF 393
[3] = system: HOP-92
[4] = system: A549
[5] = system: SK-OV-3
[6] = system: HCT-15
[7] = system: A498
[8] = system: NCI-H226
[9] = system: NCI-H522
[10] = system: DU-145
[11] = system: PC-3
[12] = system: LOX IMVI
[13] = system: OVCAR-5
[14] = system: SK-MEL-28
[15] = system: NCI-H460
[16] = system: KM12
[17] = system: Malme-3M
[18] = system: CAKI-1
[19] = system: NCI/ADR-RES
[20] = system: IGROV-1
[21] = system: SF-295
[22] = system: CCRF-CEM
[23] = system: HCT-116
[24] = system: MCF7
[25] = system: SK-MEL-2
[26] = system: MDA-MB-231
[27] = system: OVCAR-3
[28] = system: OVCAR-4
[29] = system: MDA-MB-435
[30] = system: ACHN
[31] = system: SF-539
[32] = system: NCI-H23
[33] = system: HOP-62
[34] = system: HL-60
[35] = system: SK-MEL-5
[36] = system: SNB-75
[37] = system: OVCAR-8
[38] = system: COLO 205
[39] = system: SW-620
[40] = system: EKVX
[41] = system: MDA-N
[42] = system: HT-29
[43] = system: T47D
[44] = system: M14
[45] = system: UO-31
[46] = system: Hs-578T
[47] = system: SN12C
[48] = system: SF-268
[49] = system: SNB-19
[50] = system: RPMI-8226
[51] = system: 786-0
[52] = system: UACC-62
[53] = system: TK-10
[54] = system: U-251

For `CN(C)C1C(=O)C(C(N)=O)=C(O)C2(O)C(O)=C3C(=O)c4c(O)cccc4C(C)(O)C3CC12` (configuration not stated), the GI50 [1] was > 100000 nM (inactive), the GI50 [2] was 43600 nM (inactive) and the GI50 [3] was > 100000 nM (inactive). For the same molecule, the GI50 [4] was 60800 nM (inactive), the GI50 [5] was 76600 nM (inactive) and the GI50 [6] was 50500 nM. The GI50 [7] was 43800 nM (inactive), the GI50 [8] was 82600 nM (inactive) and the GI50 [9] was 78000 nM (inactive). For the same molecule, the GI50 [10] was 68400 nM (inactive), the GI50 [11] was > 100000 nM (inactive) and the GI50 [12] was 33700 nM (inactive). The GI50 [13] was > 100000 nM (inactive), the GI50 [14] was 93500 nM (inactive) and the GI50 [15] was 52000 nM (inactive). For the same molecule, the GI50 [16] was 73800 nM (inactive), the GI50 [17] was 67300 nM (inactive) and the GI50 [18] was 38700 nM (inactive). The GI50 [19] was 76400 nM (inactive) and the GI50 [20] was 52800 nM (inactive).

For `Cc1cn2c(/C=N/NC(=N)N)c(-c3ccc([N+](=O)[O-])cc3)nc2s1`, the GI50 [21] was 1460 nM (inactive), the GI50 [22] was 194 nM (active) and the GI50 [23] was 227 nM (active). The GI50 [1] was 1180 nM (inactive), the GI50 [24] was 252 nM (active) and the GI50 [25] was 1360 nM (inactive). The GI50 [26] was 385 nM (active), the GI50 [2] was 914 nM (active) and the GI50 [27] was 1650 nM (inactive). For the same molecule, the GI50 [28] was 169 nM (active), the GI50 [29] was 1570 nM (inactive) and the GI50 [3] was 641 nM (active). The GI50 [4] was 1660 nM (inactive), the GI50 [5] was 1760 nM (inactive) and the GI50 [30] was 1490 nM (inactive). The GI50 [31] was 1680 nM (inactive), the GI50 [6] was 1460 nM and the GI50 [32] was 1590 nM (inactive). The GI50 [7] was 1520 nM (inactive), the GI50 [8] was 1870 nM (inactive) and the GI50 [10] was 2490 nM (inactive). The GI50 [33] was 1290 nM (inactive), the GI50 [34] was 1530 nM (inactive) and the GI50 [35] was 1360 nM (inactive). The GI50 [36] was 509 nM (active), the GI50 [11] was 1400 nM (inactive) and the GI50 [37] was 149 nM (active). For the same molecule, the GI50 [38] was 685 nM (active), the GI50 [39] was 175 nM (active) and the GI50 [40] was 338 nM (active). For the same molecule, the GI50 [12] was 352 nM (active), the GI50 [41] was 425 nM (active) and the GI50 [13] was 785 nM (active). For the same molecule, the GI50 [14] was 1570 nM (inactive), the GI50 [42] was 1320 nM (inactive) and the GI50 [15] was 1760 nM (inactive). For the same molecule, the GI50 [16] was 401 nM (active), the GI50 [17] was 1390 nM (inactive) and the GI50 [18] was 2610 nM (inactive). For the same molecule, the GI50 [19] was 4040 nM (inactive), the GI50 [43] was 566 nM (active) and the GI50 [44] was 1170 nM (inactive). For the same molecule, the GI50 [45] was 1950 nM (inactive), the GI50 [46] was 935 nM (active) and the GI50 [47] was 1460 nM (inactive). For the same molecule, the GI50 [48] was 1640 nM (inactive), the GI50 [49] was 357 nM (active) and the GI50 [50] was 1420 nM (inactive). The GI50 [51] was 256 nM (active), the GI50 [52] was 1720 nM (inactive) and the GI50 [53] was 1570 nM (inactive). The GI50 [54] was 995 nM (active).
